From patent US20230293540A1, “ANTICOAGULANT COMPOUNDS, METHODS AND DEVICES FOR OPHTHALMIC USE” (Elixir Medical Corporation, priority 2020, published 2023)

Assays:
[1] = system: porcine coronary artery; assay: Histopathology scores and QCA of anticoagulant eluting stents in porcine coronary artery model (Examples 2, 3); assay type: in vivo
Protocol: The mean score was calculated and reported. […] The smaller the fibrin score, the better efficacy.

[2] = system: Calcium-reconstituted sheep blood; assay: Activated clotting time (ACT) in calcium-reconstituted sheep blood; assay type: biochemical; conditions: individual drug at 0.6 ng/mg
Protocol: The activated clotting time (ACT) evaluation of anticoagulants was performed in Calcium-reconstituted sheep blood and recorded employing the Hemochron® Response device. […] A target amount of drug solution was then added into the test tube. […] The tube was gently shaken before being inserted into the Hemochron Response detector. The ACT read out was recorded and reported. The ACT of the control blood in the absence of any drug as first determined to establish a baseline. Then ACT was determined in the presence of different concentrations of the drug as a single component. Selected drug combinations, were then tested to evaluate for potential synergy in action between the two drugs.

[3] = In vivo drug released from / remaining on stent (HPLC); parameters: species or system porcine
Source text: The stented artery was cut longitudinally with surgical scissors. The stents were separated from the tissue.

[4] = Drug concentration in PEG 300 supernatant and precipitation in phosphate buffered saline (HPLC); assay type: physicochemical; conditions: after 24 hours in DPBS
Protocol: The vial was sonicated with 40° C. heat for 30 minutes and then was placed in the 40° C. oven overnight for 20 hours. […] The crystal fine particles were verified by following. 100 µL of the clear PEG 300 solution was added to a vial with 4.3 mL of Dulbecco’s phosphate buffered saline to mimic the ophthalmic vitreous humor. […] The solution stands overnight for 24 hours at room temperature. […] The solution was then centrifuged, and the supernatant was analyzed by HPLC. […] The solution was sonicated 10 minutes until clear. […] The crystal fine particles were verified by following. […] The vial was sonicated with 40° C. heat for 30 minutes and then was placed in the 40° C. oven overnight for 20 hours.

[5] = Example 3 stent, within 28 days

Compound: Dalteparin
- Inhibition of fibrin formation compared to bare metal control stents ([1]; 7 days): not more effective
- Inhibition of smooth muscle cell proliferation (LLL) compared to bare metal control stents ([1]; 7 days): not more effective

Compound: CC1CNc2c(cccc2S(=O)(=O)N[C@@H](CCCNC(=N)N)C(=O)N2CC[C@@H](C)C[C@@H]2C(=O)O)C1 (stereo partly shown) [Argatroban]
- Inhibition of fibrin formation compared to bare metal control stents ([1]; 7 days): not more effective
- ACT [2]: 301

Compound: O=C(NC[C@H]1CN(c2ccc(N3CCOCC3=O)cc2)C(=O)O1)c1ccc(Cl)s1 [Rivaroxaban]
- Rivaroxaban amount released from stent ([3]; Example 3 stent, in combination with m-TOR inhibitor formulation, within 7 days): about 68.1 µg
- Percent of rivaroxaban released from stent [3, 5]: about 92.5%
- Rivaroxaban dose released from stent [3, 5]: about 92.5 µg
- Cumulative Percent Release of drug by day 7, Rivaroxaban ([3]; Rivaroxaban/Argatroban combination stent): about 70.9%
- Cumulative Percent Release of drug by day 7 ([3]; single-drug stent): about 99.5%
- Inhibition of fibrin formation compared to bare metal control stents ([1]; 7 days): more effective
- Inhibition of fibrin formation compared to control ([1]; Example 3, fast release formulation, 7 days and/or 28 days): more effective

Compound: COc1ccc(-n2nc(C(N)=O)c3c2C(=O)N(c2ccc(N4CCCCC4=O)cc2)CC3)cc1 [Apixaban]
- ACT [2]: 522
- Fraction precipitated out to crystalline form [4]: 33%
